Experimental data reported in article PMC8070394, “Determination of Colistin in Contents Derived from Gastrointestinal Tract of Feeding Treated Piglet and Broiler” (Antibiotics, 2021).

Legend:
[1] = Colistin in contents of swine gastrointestinal segments and feces after feeding treatment (UPLC-MS/MS); type: in vivo, piglets (Duroc × Landrace × Large white); conditions: n = 4
Method: (§1) Eight weaned piglets (Duroc × Landrace × Large white) 3~4 weeks of age were used in a 14-day feeding trial. First, all piglets were fed with the base diet (Table S1) for an adapting period of 6 days. Subsequently, four piglets fed the base diet were kept as untreated controls, and the other four piglets were fed the base diet, which was supplemented with colistin sulphate at 20 mg/kg of body weight for 14 consecutive days. Thereafter, feces were collected, and the piglets were slaughtered to obtain contents from the swine gastrointestinal segments, including stomach, duodenum, jejunum and cecum. The sixteen cobb broilers 1–3 days in age were selected and fed with a drug-free balanced diet (Table S2) during the 14-day adaption period and the subsequent treatment period. Then, eight broilers were kept as untreated controls, and the other eight broilers were fed with colistin at 20 mg/kg of body weight for 14 consecutive days. At the end of the trial, treated and untreated animals were sacrificed, and the contents derived from the gizzard, proventriculus, duodenum, jejunum, ileum and cecum were recovered. All samples were stored at −80 °C before being analyzed.
(§2) The extraction procedure was based on the methods developed by Fu with some modifications. Briefly, 2 g of samples was lyophilized to dryness and extracted twice with 10 mL of 10% trichloroacetic acid: acetonitrile (40:60, v/v), and the combined extraction solution was adjusted to pH 9.0. Thereafter, the extraction solution was applied to Oasis WCX SPE cartridges which were prewashed with 3 mL of methanol and 3 mL of water. The cartridges were then rinsed with 3 mL of water, 3 mL of methanol and 3 mL of 5% formic acid in water. Eventually, the colistin was eluted with 5 mL of 20% formic acid in methanol. The eluent was evaporated to dryness by vacuum centrifugation at 50 °C and resuspended in 500 μL of deionized water prior to measurement using an UPLC–MS/MS system.
(§3) Chromatography of colistin was conducted with an UltiMate 3000 UPLC system (Thermo Fisher, San Jose, CA, USA) equipped with an Acquity UPLC BEH C18 column (2.1 mm × 100 mm; 1.7 µm particle size; Waters, Milford, MA, USA). The mobile phase A was 0.2% formic acid, 5% acetonitrile in H2O; B was 100% acetonitrile. The colistin was resolved with a linear gradient starting from 95% A solvent to 70% B solvent over 5 min and then to 5% A at 10 min, at a flow rate of 200 µL/min.
(§4) MS spectra were acquired at positive ionization mode with a hybrid quadrupole-obitrap mass spectrometer (Q Exactive, Thermo Fisher, San Jose, CA, USA). The sheath gas flow rate was 25 mL/min; the auxiliary gas flow rate was 15 mL/min; the spray voltage was 3.2 kV; and the temperature of the capillary tube was set to 320 °C. One microscan was used for data acquisition. The resolution settings were full MS target 70,000 and MS/MS target 17,500; normalized CE 20% and 22% were employed for colistin A and colistin B, respectively. Data manipulations were employed using Xcalibur version 4.0 software. Quantitative analyses were conducted in the selective reaction monitoring (SRM) scan mode. The two most abundant fragment ions were selected from each analyte for analysis (Figure S1). The transitions monitored and approximate chromatographic retention times (tR) were as follows: colistin A ([M + 3H]^3+), m/z 390.60 > 101.0696, 241.1860, tR = 7.30 min; colistin B ([M + 3H]^3+), m/z 385.90 > 101.0696, 227.1710, tR = 6.85 min. The mass tolerance was set to 5 ppm for fragment ions.
(§5) Colistin-treated samples and controls were subject to analysis using the proposed method, including stomach, duodenum, jejunum and cecum content samples and feces samples recovered from 4 treated and 4 untreated piglets; gizzard, proventriculus, duodenum, jejunum, ileum and cecum content samples and feces samples from 8 treated and 8 control cobb broilers. […]

[2] = Colistin in contents of broiler gastrointestinal segments and feces after feeding treatment (UPLC-MS/MS); type: in vivo, cobb broilers; conditions: broilers fed colistin 20 mg/kg body weight for 14 days
Method: as §1, §2, §3, §4, §5

[3] = pigs, single oral administration, cited from earlier work
Text: Nutrients and drugs are known to be mainly absorbed in the small intestine of animals and humans after oral administration. The dosing regimen of colistin in clinical use depends upon the pharmacokinetics and pharmacodynamics of colistin in humans. Meanwhile, the absorption of oral drugs in the digestive tract is crucial for the dosing regimen as well. Unlike for human medicine, a few studies have been conducted in animals to evaluate the pharmacokinetics and pharmacodynamics of colistin following oral administration. One study has measured colistin in the whole intestin ...

Colistin
average amount of colistin in content recovered from the cecum, based on dried weight ([1]; piglets fed colistin sulphate 20 mg/kg body weight for 14 days, cecum content, dried weight): ~ 3300 ng/g | concentration of colistin in content from the cecum ([1]; piglets fed colistin sulphate 20 mg/kg body weight for 14 days, cecum content, wet weight, UPLC-MS/MS, mean ± standard deviation): 398.3 ± 161.2 ng/g | average concentration of colistin in samples from the duodenum ([1]; piglets fed colistin sulphate 20 mg/kg body weight for 14 days, duodenum content, UPLC-MS/MS): ~ 30 ng/g | average amount of colistin in feces, based on dried weight ([1]; piglets fed colistin sulphate 20 mg/kg body weight for 14 days, feces, dried weight): ~ 3300 ng/g | average concentration of colistin in samples from the jejunum ([1]; piglets fed colistin sulphate 20 mg/kg body weight for 14 days, jejunum content, UPLC-MS/MS): ~ 30 ng/g | average concentration of colistin in feces samples ([1]; piglets fed colistin sulphate 20 mg/kg body weight in diet for 14 consecutive days, feces, wet weight, UPLC-MS/MS, mean): approximately 1248.3 ng/g | decrease of the amount of colistin from the cecum to feces [2]: at least 5 fold | estimate of colistin in samples from the cecum, regardless of the moisture ([2]; cecum content, dried weight, mean ± standard deviation, n = 8): 15766.0 ± 9249.2 ng/g | average concentration of colistin, cecum ([2]; cecum content, wet weight, mean, n = 8): 4882.9 ng/g | average concentration of colistin, duodenum ([2]; duodenum content, wet weight, mean, n = 8): 383.7 ng/g | estimate of colistin in samples from feces, regardless of the moisture ([2]; feces, dried weight, mean ± standard deviation, n = 8): 823.4 ± 616.4 ng/g | average concentration of colistin in feces samples ([2]; feces, wet weight, mean, n = 8): 147.7 ng/g | average concentration of colistin, gizzard ([2]; gizzard content, wet weight, mean, n = 8): 1145.7 ng/g | average concentration of colistin, ileum ([2]; ileum content, wet weight, mean, n = 8): 2056.1 ng/g | average concentration of colistin, jejunum ([2]; jejunum content, wet weight, mean, n = 8): 1572.3 ng/g | average concentration of colistin, proventriculus ([2]; proventriculus content, wet weight, mean, n = 8): 448.3 ng/g | peak concentration of colistin in samples from the duodenum to ileum, highest level ([3]; HPLC-Fluorescence after derivatization): ~ 90,000 ng/g | colistin in samples from duodenum to ileum after 4 h ([3]; after 4 h, HPLC-Fluorescence): no colistin was detected
